Measurements from patent publication US6489331B1, “Remedies for diabetes” (Kyowa Hakko Kogyo Co., Ltd., priority 1998, dated 2002).
Counter-ions that a name gives are not always drawn. Like-named read-outs stand apart in the source and are kept apart here.

Key:
MIN6 cell = assay: Insulin secretion enhancing action in cultured β-cell (MIN6); type: cell-based; details: in the presence of 14.5 mM glucose; drug concentration 1.0 μM
Experimental: Culture of the MIN6 cells and insulin secretion test utilizing the MIN6 cells were performed basically according to the methods described in literature (Ishihara et al., Diabetologia, vol. 36, pp.1139-1145, 1993). The effect of a compound on the insulin secretion in the presence of 14.5 mM glucose was determined by measuring insulin amounts in cell culture supernatants collected as follows. MIN6 cells cultured on a 24-well plate were washed twice by using 1 ml of Buffer A (119 mM sodium chloride, 4.74 mM potassium chloride, 2.54 mM calcium chloride, 1.19 mM magnesium sulfate, 1.19 mM potassium dihydrogenphosphate, 10 mM 2-[4-(2-hydroxyethyl)-1-piperazinyl]ethanesulfonic acid, 0.1% bovine serum albumin, pH 7.3) containing 2 mM glucose, and then were incubated in 1 ml of Buffer A containing 2 mM glucose at 37° C. for 45 minutes. After the incubation, the culture supernatant was changed to Buffer A (0.9 ml) containing a test compound at various concentrations and 2 mM glucose, and the cells were further incubated at 37° C. for 15 minutes. The MIN6 cells were stimulated with glucose by the addition of Buffer A (0.1 ml) containing 127 mM glucose to the culture (final glucose concentration: 14.5 mM). After the stimulation, the cells were further incubated at 37° C. for 45 minutes, and then the culture supernatant was collected.
Separately, the effect of a compound on the insulin secretion in the presence of 5 mM glucose was determined by measuring insulin amounts in cell culture supernatants collected as follows. MIN6 cells cultured on a 24-well plate were washed twice by using 1 ml of Buffer A containing 5 mM glucose, and then the culture supernatant was changed to Buffer A (0.9 ml) containing a test compound at various concentrations and 5 mM glucose. Then, the cells were incubated at 37° C. for 45 minutes (final glucose concentration: 5 mM), and the culture supernatant was collected.
After the culture supernatant was diluted with a phosphate buffer containing 1% bovine serum albumin, 0.1% Tween 20, 0.12% disodium ethylenediaminetetraacetate and 0.1% sodium azide, antibody-reactive insulin secreted in the culture supernatant was quantified by enzyme immunoassay or radio immunoassay. […] The results are indicated as averages (avg) for 3 to 4 samples with standard error values (se).

dd male mice = assay: Acute toxicity test (minimum lethal dose); type: in vivo; details: po, mortality after seven days
Experimental: A test compound was orally administered to dd male mice (body weight: 20±1 g, n=3). Mortality rate after seven days was measured to determine minimum lethal dose (MLD).

Wistar male rats [1] = assay: Hyperglycemia suppression action after glucose-loading; type: in vivo; details: 30 mg/kg, po
Experimental: These rats were used for the experiment after starvation for 18 hours. A test compound was orally administered 1 hour before oral administration of glucose (2 g/kg). Jugular venous blood was collected before the administration of test compound, before the glucose-loading, 5, 10, 15, 30, 45 and 60 minutes after the glucose-loading, and plasma glucose concentration was measured (enzymatic method). The insulin level was indicated as amount of rat insulin (ng/mL).

Wistar male rats [2] = details: iv; for Area of plasma insulin, test compound-administered group: after glucose-loading (10 mg/kg iv)
Experimental: Wistar male rats (body weight: about 250 g) starved for 18 hours were anesthetized by intraperitoneal administration of sodium pentobarbital (50 mg/kg), and fixed at the dorsal position. Cannulas were inserted into the right common carotid artery for blood collection and the left femoral vein for administration of drug and glucose, respectively. To these rats were intravenously administered 500 U/kg of heparin to prevent blood coagulation. After about 0.2 ml of blood was collected, a drug was intravenously administered. Two minutes after the administration of the drug, blood was collected, and then glucose (10 mg/kg) was immediately administered intravenously. Then, blood was collected every 20 seconds for 2 minutes. Insulin concentration in plasma obtained by centrifugation was measured by radioimmunoassay. From an insulin concentration which increased after the glucose-loading, its area was calculated and considered the amount of secreted insulin. The insulin level was indicated as the amount of rat insulin (ng/mL).

Row | Compound | Amount of secreted insulin (ng/ml) avg (MIN6 cell) [ng/mL] | % Ratio based on control (area of plasma insulin) (Wistar male rats [2]; 1 mg/kg) [%] | Area of plasma insulin, test compound-administered group (Wistar male rats [2]; 1 mg/kg) [ng·s/mL] | other results
1 | CCCN1C(=O)N2C[C@H](C(C)(C)C)N=C2c2[nH]c(C3CCCC3)nc21.Cl [Compound 12, (S)-8-tert-butyl-2-cyclopentyl-7,8-dihydro-4-propyl-1H-imidazo[2,1-i]purin-5(4H)-one hydrochloride] | 227.8 | – | – | melting point: 184 to 186 °C
2 | CCCN1C(=O)N2C[C@@H](Cc3ccccc3)N=C2c2[nH]c(C3CCCC3)nc21 [Compound 16, (R)-8-benzyl-2-cyclopentyl-7,8-dihydro-4-propyl-1H-imidazo[2,1-i]purin-5(4H)-one hydrochloride] | 229.5 | – | – | minimum lethal dose (MLD) (dd male mice): not less than 300 mg/kg; Plasma glucose concentration (Wistar male rats [1]; 0 minute (before glucose-loading)): 102 ± 4.6 mg/dL; Plasma glucose concentration (Wistar male rats [1]; 5 minutes after glucose-loading): 147 ± 5.7 mg/dL; Plasma glucose concentration (Wistar male rats [1]; 10 minutes after glucose-loading): 183 ± 9.1 mg/dL; Plasma glucose concentration (Wistar male rats [1]; 15 minutes after glucose-loading): 186 ± 8.7 mg/dL; Plasma glucose concentration (Wistar male rats [1]; 30 minutes after glucose-loading): 167 ± 3.3 mg/dL; Plasma glucose concentration (Wistar male rats [1]; 45 minutes after glucose-loading): 165 ± 4.8 mg/dL; Plasma glucose concentration (Wistar male rats [1]; 60 minutes after glucose-loading): 178 ± 4.7 mg/dL; Plasma glucose concentration (Wistar male rats [1]; −1 minute): 114 ± 4.5 mg/dL; % Ratio based on control (area of plasma insulin) (Wistar male rats [2]; 3 mg/kg): 246 ± 19%; Area of plasma insulin, test compound-administered group (Wistar male rats [2]; 3 mg/kg): 17.28 ± 1.35 ng·s/mL
3 | CCCN1C(=O)N2CC(Cc3cccc(F)c3)N=C2c2[nH]c(C3CCCC3)nc21 (stereo not shown) [Compound 19, 2-cyclopentyl-8-(3-fluorobenzyl)-7,8-dihydro-4-propyl-1H-imidazo[2,1-i]purin-5(4H)-one hydrochloride] | 223.8 | 291 ± 42 | 13.41 ± 1.95 | –
4 | CCCN1C(=O)N2CC(Cc3ccc(Br)cc3)N=C2c2[nH]c(C3CCCC3)nc21 (stereo not shown) [Compound 23, 8-(4-bromobenzyl)-2-cyclopentyl-7,8-dihydro-4-propyl-1H-imidazo[2,1-i]purin-5(4H)-one hydrochloride] | 249.9 | 228 ± 50 | 11.85 ± 2.58 | –
5 | CCCN1C(=O)N2CC(CCc3ccccc3)N=C2c2[nH]c(C3CCCC3)nc21 (stereo not shown) [Compound 31, 2-cyclopentyl-7,8-dihydro-8-phenethyl-4-propyl-1H-imidazo[2,1-i]purin-5(4H)-one hydrochloride] | 220.5 | 173 ± 16 | 9.00 ± 0.84 | –
6 | CCCc1nc2c([nH]1)C1=N[C@H](Cc3ccccc3)CN1C(=O)N2CCC [Compound 35, (R)-8-benzyl-7,8-dihydro-2,4-dipropyl-1H-imidazo[2,1-i]purin-5(4H)-one hydrochloride] | 232.4 | 178 ± 23 | 15.69 ± 2.04 | –
7 | CCCN1C(=O)N2C[C@@H](Cc3ccc(F)cc3)N=C2c2[nH]c(-c3ccoc3)nc21 [Compound 54, (R)-8-(4-fluorobenzyl)-2-(3-furyl)-7,8-dihydro-4-propyl-1H-imidazo[2,1-i]purin-5(4H)-one] | 216.1 | – | – | melting point: 149 to 150 °C
